Assay results published in patent publication US8063220B2, “Sulfonyl-quinoline derivatives” (Richter Gedeon Nyrt., priority 2007, dated 2011).

Tests used:
[1] = biological target: mGluR1 receptors (Homo sapiens, UniProt Q13255); assay: Activity on mGluR1 receptors (test not specified)
[2] = biological target: mGluR5 receptors (Homo sapiens, UniProt P41594); assay: Activity on mGluR5 receptors (test not specified)
[3] = biological target: T1, rat mGluR1 (Rattus norvegicus, UniProt P23385); assay: MGluR1 receptor binding test ([3H]R214127 displacement, rat cerebellar membrane preparation); conditions: rat mGluR1, [3H]R214127 3 nM; read-out: mGlu1 Ki
T1 construct: rat cerebellar membrane preparation was used; from tissue; host or cells: rat cerebellum (membrane preparation)
Method in brief: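 Rat cerebellar membranes with 3 nM [3H]R214127; nonspecific binding defined by 1 μM R214127. IC50 from displacement curves by nonlinear regression, converted to Ki by Cheng–Prusoff.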

[4] = biological target: T2, rat mGluR5 (Rattus norvegicus, UniProt P31424); assay: MGluR5 receptor binding test ([3H]-M-MPEP displacement, rat cerebro-cortical membrane preparation); conditions: rat mGluR5, [3H]-M-MPEP 2 nM; read-out: mGlu5 Ki
T2 construct: Rat cerebro-cortical membrane preparation was used; from tissue; host or cells: rat cerebral cortex (membrane preparation)
Procedure: Rat cerebro-cortical membrane preparation was used to determine the binding characteristics of reference compounds and novel compounds to the rat mGluR5. The A18 cell line expressing hmGluR5a (purchased from Euroscreen) was used to determine binding characteristics of the chemical compounds to the human mGluR5a receptor. [3H]-M-MPEP (2 nM) was used as radioligand. The nonspecific binding was determined in the presence of 10 μM M-MPEP.

T2 sequence (P31424 21-1203): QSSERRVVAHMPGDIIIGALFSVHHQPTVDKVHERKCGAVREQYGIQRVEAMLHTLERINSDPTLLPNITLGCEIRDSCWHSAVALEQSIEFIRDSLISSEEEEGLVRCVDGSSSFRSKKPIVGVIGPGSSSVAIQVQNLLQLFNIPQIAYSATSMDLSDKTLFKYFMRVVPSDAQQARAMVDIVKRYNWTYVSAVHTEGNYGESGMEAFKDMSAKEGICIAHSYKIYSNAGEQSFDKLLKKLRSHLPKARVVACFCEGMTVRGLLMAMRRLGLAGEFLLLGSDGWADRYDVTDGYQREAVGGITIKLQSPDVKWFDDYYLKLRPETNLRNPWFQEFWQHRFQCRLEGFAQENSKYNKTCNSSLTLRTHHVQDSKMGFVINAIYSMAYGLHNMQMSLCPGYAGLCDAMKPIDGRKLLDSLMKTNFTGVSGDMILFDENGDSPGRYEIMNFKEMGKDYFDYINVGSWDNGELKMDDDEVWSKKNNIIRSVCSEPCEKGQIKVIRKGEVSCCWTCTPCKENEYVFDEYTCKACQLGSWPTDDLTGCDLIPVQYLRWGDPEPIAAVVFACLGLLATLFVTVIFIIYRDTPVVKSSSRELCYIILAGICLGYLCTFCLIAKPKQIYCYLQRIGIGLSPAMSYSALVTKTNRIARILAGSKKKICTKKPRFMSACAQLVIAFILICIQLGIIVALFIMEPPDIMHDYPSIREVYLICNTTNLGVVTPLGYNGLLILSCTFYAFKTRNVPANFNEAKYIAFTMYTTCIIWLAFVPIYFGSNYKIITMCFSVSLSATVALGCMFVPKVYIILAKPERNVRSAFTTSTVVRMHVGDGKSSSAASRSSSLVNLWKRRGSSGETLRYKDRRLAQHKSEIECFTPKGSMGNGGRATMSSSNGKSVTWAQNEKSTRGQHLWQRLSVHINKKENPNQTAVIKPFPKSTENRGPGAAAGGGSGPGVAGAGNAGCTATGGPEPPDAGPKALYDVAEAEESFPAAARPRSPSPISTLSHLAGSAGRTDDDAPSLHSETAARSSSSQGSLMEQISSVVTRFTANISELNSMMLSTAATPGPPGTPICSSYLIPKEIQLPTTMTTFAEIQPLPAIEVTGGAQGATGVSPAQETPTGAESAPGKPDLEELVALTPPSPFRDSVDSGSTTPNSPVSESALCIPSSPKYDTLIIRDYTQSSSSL
T1 sequence (P23385 19-1199): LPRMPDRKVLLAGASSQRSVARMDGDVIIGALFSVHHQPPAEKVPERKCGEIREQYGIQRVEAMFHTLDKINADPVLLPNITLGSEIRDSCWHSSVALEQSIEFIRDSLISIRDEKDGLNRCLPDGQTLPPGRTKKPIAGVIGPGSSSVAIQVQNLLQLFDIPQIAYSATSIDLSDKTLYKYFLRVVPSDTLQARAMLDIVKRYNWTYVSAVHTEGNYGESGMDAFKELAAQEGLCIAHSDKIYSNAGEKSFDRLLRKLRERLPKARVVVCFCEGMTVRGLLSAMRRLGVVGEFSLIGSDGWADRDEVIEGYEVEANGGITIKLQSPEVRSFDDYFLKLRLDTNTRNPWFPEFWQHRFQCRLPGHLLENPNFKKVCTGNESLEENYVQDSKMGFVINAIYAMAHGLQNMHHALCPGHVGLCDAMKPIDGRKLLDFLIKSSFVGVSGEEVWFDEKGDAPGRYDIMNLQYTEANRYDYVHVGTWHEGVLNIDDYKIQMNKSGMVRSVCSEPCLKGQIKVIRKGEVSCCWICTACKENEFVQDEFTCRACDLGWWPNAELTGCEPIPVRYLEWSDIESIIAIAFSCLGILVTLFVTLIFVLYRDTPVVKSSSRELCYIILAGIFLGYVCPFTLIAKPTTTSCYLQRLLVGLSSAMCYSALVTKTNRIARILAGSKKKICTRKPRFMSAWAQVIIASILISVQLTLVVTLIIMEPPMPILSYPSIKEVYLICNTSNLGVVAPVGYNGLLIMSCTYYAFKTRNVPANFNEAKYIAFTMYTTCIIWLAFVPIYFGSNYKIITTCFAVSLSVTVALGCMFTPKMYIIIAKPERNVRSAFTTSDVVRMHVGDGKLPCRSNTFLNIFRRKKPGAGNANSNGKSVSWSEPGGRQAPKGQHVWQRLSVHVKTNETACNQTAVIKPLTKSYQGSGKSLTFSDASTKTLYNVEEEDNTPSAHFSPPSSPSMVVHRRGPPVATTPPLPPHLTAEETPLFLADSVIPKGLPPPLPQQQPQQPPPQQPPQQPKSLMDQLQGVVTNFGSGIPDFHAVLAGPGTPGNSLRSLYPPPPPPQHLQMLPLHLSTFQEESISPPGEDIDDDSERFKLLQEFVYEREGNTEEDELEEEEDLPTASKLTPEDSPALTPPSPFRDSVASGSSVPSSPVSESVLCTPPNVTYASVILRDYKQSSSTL
Chain of mGluR1 receptors (Q13255 19-1194): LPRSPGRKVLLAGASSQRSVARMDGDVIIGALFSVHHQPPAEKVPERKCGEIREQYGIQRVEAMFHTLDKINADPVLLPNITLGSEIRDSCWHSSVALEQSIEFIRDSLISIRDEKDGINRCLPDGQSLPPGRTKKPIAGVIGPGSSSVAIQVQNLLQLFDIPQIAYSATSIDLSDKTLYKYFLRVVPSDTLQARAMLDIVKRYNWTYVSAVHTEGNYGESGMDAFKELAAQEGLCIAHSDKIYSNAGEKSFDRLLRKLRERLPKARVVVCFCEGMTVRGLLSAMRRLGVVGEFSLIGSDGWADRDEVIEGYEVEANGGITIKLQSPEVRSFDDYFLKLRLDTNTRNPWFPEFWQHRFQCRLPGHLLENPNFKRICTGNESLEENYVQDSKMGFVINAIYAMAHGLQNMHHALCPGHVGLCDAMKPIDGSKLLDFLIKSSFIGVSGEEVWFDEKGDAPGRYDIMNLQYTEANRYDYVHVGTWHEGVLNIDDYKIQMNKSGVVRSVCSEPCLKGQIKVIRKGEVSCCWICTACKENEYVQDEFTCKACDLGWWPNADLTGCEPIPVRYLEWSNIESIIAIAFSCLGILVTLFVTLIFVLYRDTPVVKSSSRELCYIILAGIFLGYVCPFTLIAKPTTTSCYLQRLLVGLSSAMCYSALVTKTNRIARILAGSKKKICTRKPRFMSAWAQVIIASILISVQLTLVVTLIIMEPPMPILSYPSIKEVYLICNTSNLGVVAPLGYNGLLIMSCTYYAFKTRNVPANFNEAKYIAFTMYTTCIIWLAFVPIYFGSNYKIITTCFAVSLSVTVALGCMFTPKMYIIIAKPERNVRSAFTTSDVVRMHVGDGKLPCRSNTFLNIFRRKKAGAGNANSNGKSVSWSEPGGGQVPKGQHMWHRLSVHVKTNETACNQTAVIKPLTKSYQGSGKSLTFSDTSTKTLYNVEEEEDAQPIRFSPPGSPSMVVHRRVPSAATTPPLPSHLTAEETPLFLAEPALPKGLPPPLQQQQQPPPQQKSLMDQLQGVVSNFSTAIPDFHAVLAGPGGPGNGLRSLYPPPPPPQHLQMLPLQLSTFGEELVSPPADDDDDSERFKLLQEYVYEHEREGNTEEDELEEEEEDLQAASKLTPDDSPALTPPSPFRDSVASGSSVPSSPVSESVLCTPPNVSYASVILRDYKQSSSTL
Chain of mGluR5 receptors (P41594 21-1212): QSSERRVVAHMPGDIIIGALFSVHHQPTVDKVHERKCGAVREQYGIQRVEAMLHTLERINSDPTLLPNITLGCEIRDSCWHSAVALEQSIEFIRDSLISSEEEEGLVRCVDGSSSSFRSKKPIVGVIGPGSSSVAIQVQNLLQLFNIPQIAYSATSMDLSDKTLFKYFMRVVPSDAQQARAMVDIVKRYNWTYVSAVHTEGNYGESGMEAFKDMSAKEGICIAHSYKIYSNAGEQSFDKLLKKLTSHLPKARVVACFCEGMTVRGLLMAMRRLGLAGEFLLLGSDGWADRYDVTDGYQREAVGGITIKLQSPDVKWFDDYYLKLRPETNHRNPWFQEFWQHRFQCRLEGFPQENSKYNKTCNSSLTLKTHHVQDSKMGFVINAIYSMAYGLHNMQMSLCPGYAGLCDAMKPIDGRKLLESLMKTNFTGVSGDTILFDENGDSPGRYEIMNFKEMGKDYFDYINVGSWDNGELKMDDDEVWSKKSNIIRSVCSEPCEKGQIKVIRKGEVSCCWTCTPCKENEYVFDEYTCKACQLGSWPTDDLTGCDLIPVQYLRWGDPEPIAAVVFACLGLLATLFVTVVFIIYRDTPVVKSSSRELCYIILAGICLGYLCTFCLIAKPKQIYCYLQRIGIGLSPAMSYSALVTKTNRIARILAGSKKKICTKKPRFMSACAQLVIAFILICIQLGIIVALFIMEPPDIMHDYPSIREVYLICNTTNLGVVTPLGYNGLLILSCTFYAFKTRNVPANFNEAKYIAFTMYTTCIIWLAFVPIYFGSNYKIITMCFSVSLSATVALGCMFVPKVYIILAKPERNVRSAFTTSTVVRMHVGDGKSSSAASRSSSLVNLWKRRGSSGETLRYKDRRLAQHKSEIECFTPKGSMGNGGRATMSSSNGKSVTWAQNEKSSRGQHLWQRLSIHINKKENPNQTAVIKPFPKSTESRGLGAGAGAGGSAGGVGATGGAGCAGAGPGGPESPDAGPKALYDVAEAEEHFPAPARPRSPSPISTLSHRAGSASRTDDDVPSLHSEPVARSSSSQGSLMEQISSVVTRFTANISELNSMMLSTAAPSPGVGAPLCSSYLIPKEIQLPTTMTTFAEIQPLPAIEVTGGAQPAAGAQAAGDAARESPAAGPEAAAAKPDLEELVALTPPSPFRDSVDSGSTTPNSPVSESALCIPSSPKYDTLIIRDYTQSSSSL

SMILES | activity on mGluR1 receptors [1] | activity on mGluR5 receptors [2] | Ki [3] [nM] | Ki [4] [nM]
Cc1ccc(S(=O)(=O)c2cnc3c(F)cccc3c2-c2ccc(F)cc2)cc1F [Compound 114] | – | – | > 500 | < 200
COc1ccc(S(=O)(=O)c2cnc3cc(F)ccc3c2-c2ccc(F)cc2)cc1Cl [Compound 49] | – | – | > 500 | < 200
COc1ccc(-c2c(S(=O)(=O)c3cc(Cl)cc(Cl)c3)cnc3ccc(F)cc23)cc1 [Compound 125] | – | – | > 500 | < 200
O=S(=O)(c1ccc(F)c(F)c1)c1cnc2ccccc2c1-c1ccc(F)cc1 [Compound 237] | – | – | > 500 | < 200
COc1ccc(S(=O)(=O)c2cnc3ccc(F)cc3c2-c2ccc(Cl)cc2)cc1OC [Compound 164] | – | – | > 500 | > 500
N#Cc1cc(S(=O)(=O)c2cnc3cc(Cl)ccc3c2-c2ccc(F)cc2)ccc1F [Compound 276] | – | – | 200 to 500 | < 200

Next, values leading:

activity on mGluR1 receptors [1] | activity on mGluR5 receptors [2] | Ki [3] [nM] | Ki [4] [nM] | SMILES
inactive | inactive | – | – | O=S(=O)(c1ccccc1)c1cnc2c(C(F)(F)F)cccc2c1-c1ccccc1 [3-benzenesulfonyl-4-phenyl-8-trifluoromethyl-quinoline]
– | – | > 500 | < 200 | O=S(=O)(c1cc(Cl)cc(Cl)c1)c1cnc2cc(F)ccc2c1-c1ccccc1F [Compound 257]
– | – | > 500 | < 200 | O=S(=O)(c1cc(F)cc(F)c1)c1cnc2cc(Cl)ccc2c1-c1cccc(F)c1 [Compound 169]
